Test system: maximal (tonic hindlimb extension) electroshock seizures in male rats
Assay: Maximal electroshock seizure (MEST) threshold test, rat model
Format: in vivo, rats (Sprague Dawley)
Conditions: 2 mg/kg p.o., suspension in methyl cellulose, one hour post dosing, statistically significant, percentage increase in CC50 compared to control
Protocol: The maximal electroshock seizure (MEST) threshold test in rodents is particularly sensitive for detecting potential anticonvulsant properties ^1. In this model, anticonvulsant agents elevate the threshold to electrically-induced seizures whilst proconvulsants lower the seizure threshold.
Mice (naive male, Charles River, U.K. CD-1 strain, 25 - 30g) are randomly assigned to groups of 10 - 20 and dosed orally or intraperitoneally at a dose volume of 10 ml/kg with various doses of compound (0.3 - 300 mg/kg) or vehicle. Mice are then subjected at 30 or 60 min post dose to a single electroshock (0.1 sec, 50Hz, sine wave form) administered via corneal electrodes. The mean current and standard error required to induce a tonic seizure in 50% (CC50) of the mice in a particular treatment group is determined by the 'up and down' method of Dixon and Mood (1948)^2. Statistical comparisons between vehicle- and drug-treated groups are made using the method of Litchfield and Wilcoxon (1949)^3. […]
The threshold for maximal (tonic hindlimb extension) electroshock seizures in male rats (Sprague Dawley, 80 - 150g, 6 weeks old) was determined by a Hugo Sachs Electronik stimulator which delivered a constant current (0.3 sec duration; from 1-300mA in steps of 5-20mA). . […]
The percentage increase or decrease in CC50 for each group compared to the control is calculated. […]

Compound: COc1ccc(C(=O)Nc2ccc3c(c2)C2CCCN2CC3)cc1C(F)(F)F (racemic) [Example 3, (+/-)N-(1,2,3,5,6,10b-hexahydropyrrolo[2,1-a]isoquinolin-9-yl)-4-methoxy-3-trifluoromethylbenzamide]
- increase in seizure threshold: 426%

Reference: EP1102769B1, “TRICYCLIC CARBOXAMIDES” (SmithKline Beecham plc, priority 1998, dated 2000)
